Data reported in PubChem BioAssay (NCI).
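Dose response: 5 concentrations. Exposure: 48 h. Format: 96-well plates. Endpoint: linear interpolation; highest concentration if not reached. TGI is the concentration that stops growth completely.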

Key:
Experiment in all cases: growth of human tumour cells (NCI), 48 h
786-0 renal = system: 786-0 renal
NCI-H226 lung = system: NCI-H226 lung
MDA-N = system: MDA-N
PC-3 prostate = system: PC-3 prostate
T-47D breast = system: T-47D breast
CAKI-1 renal = system: CAKI-1 renal
SF-295 CNS = system: SF-295 CNS
IGROV1 ovarian = system: IGROV1 ovarian
SN12C renal = system: SN12C renal
NCI-H522 lung = system: NCI-H522 lung
SK-OV-3 ovarian = system: SK-OV-3 ovarian
SK-MEL-2 melanoma = system: SK-MEL-2 melanoma
MALME-3M melanoma = system: MALME-3M melanoma
KM12 colon = system: KM12 colon
HOP-62 NSCLC = system: HOP-62 NSCLC
SW-620 colon = system: SW-620 colon
OVCAR-4 ovarian = system: OVCAR-4 ovarian
HCC-2998 colon = system: HCC-2998 colon
SNB-19 CNS = system: SNB-19 CNS
OVCAR-3 ovarian = system: OVCAR-3 ovarian
OVCAR-8 ovarian = system: OVCAR-8 ovarian
RXF 393 renal = system: RXF 393 renal
U251 CNS = system: U251 CNS
HOP-92 NSCLC = system: HOP-92 NSCLC
DU-145 prostate = system: DU-145 prostate
NCI/ADR-RES ovarian = system: NCI/ADR-RES ovarian
UO-31 renal = system: UO-31 renal
A498 renal = system: A498 renal
SF-268 CNS = system: SF-268 CNS
MDA-MB-231 breast = system: MDA-MB-231 breast
HCT-15 colon = system: HCT-15 colon
BT-549 breast = system: BT-549 breast
TK-10 renal = system: TK-10 renal
ACHN renal = system: ACHN renal
HT29 colon = system: HT29 colon
UACC-62 melanoma = system: UACC-62 melanoma
SF-539 CNS = system: SF-539 CNS
MOLT-4 leukemia = system: MOLT-4 leukemia
OVCAR-5 ovarian = system: OVCAR-5 ovarian
COLO 205 colon = system: COLO 205 colon
SK-MEL-28 melanoma = system: SK-MEL-28 melanoma
LOX IMVI melanoma = system: LOX IMVI melanoma
NCI-H460 lung = system: NCI-H460 lung
HS 578T breast = system: HS 578T breast
MDA-MB-435 = system: MDA-MB-435
NCI-H23 lung = system: NCI-H23 lung
A549 NSCLC = system: A549 NSCLC
HCT-116 colon = system: HCT-116 colon
MCF7 breast = system: MCF7 breast
M14 melanoma = system: M14 melanoma
SNB-75 CNS = system: SNB-75 CNS
RPMI-8226 leukemia = system: RPMI-8226 leukemia
SK-MEL-5 melanoma = system: SK-MEL-5 melanoma
HL-60(TB) leukemia = system: HL-60(TB) leukemia
CCRF-CEM leukemia = system: CCRF-CEM leukemia
EKVX NSCLC = system: EKVX NSCLC
UACC-257 melanoma = system: UACC-257 melanoma

CCC(C)NC(=S)N/N=C(\C)c1ccccn1 (configuration not stated)
TGI (786-0 renal): > 100 µM | TGI (NCI-H226 lung): 6.83 µM | TGI (MDA-N): > 80 µM | TGI (PC-3 prostate): > 100 µM | TGI (T-47D breast): 41.7 µM | TGI (CAKI-1 renal): > 100 µM | TGI (SF-295 CNS): > 33.2 µM | TGI (IGROV1 ovarian): > 30.7 µM | TGI (SN12C renal): > 100 µM | TGI (NCI-H522 lung): 51.4 µM | TGI (SK-OV-3 ovarian): > 100 µM | TGI (SK-MEL-2 melanoma): > 100 µM | TGI (MALME-3M melanoma): > 28.3 µM | TGI (KM12 colon): > 100 µM | TGI (HOP-62 NSCLC): > 25.8 µM | TGI (SW-620 colon): > 100 µM | TGI (OVCAR-4 ovarian): > 100 µM | TGI (HCC-2998 colon): > 100 µM | TGI (SNB-19 CNS): > 100 µM | TGI (OVCAR-3 ovarian): 23.4 µM | TGI (OVCAR-8 ovarian): > 25.8 µM | TGI (RXF 393 renal): 26.9 µM | TGI (U251 CNS): > 100 µM | TGI (HOP-92 NSCLC): 0.668 µM | TGI (DU-145 prostate): > 46.8 µM | TGI (NCI/ADR-RES ovarian): 7.94 µM | TGI (UO-31 renal): 16.8 µM | TGI (A498 renal): > 26 µM | TGI (SF-268 CNS): > 100 µM | TGI (MDA-MB-231 breast): > 100 µM | TGI (HCT-15 colon): > 100 µM | TGI (BT-549 breast): > 100 µM | TGI (TK-10 renal): > 100 µM | TGI (ACHN renal): 10.3 µM | TGI (HT29 colon): > 100 µM | TGI (UACC-62 melanoma): > 30 µM | TGI (SF-539 CNS): 6.89 µM | TGI (MOLT-4 leukemia): 0.14 µM | TGI (OVCAR-5 ovarian): > 100 µM | TGI (COLO 205 colon): > 100 µM | TGI (SK-MEL-28 melanoma): > 100 µM | TGI (LOX IMVI melanoma): > 100 µM | TGI (NCI-H460 lung): > 100 µM | TGI (HS 578T breast): > 100 µM | TGI (MDA-MB-435): > 100 µM | TGI (NCI-H23 lung): > 100 µM | TGI (A549 NSCLC): > 33.5 µM | TGI (HCT-116 colon): > 100 µM

N#Cc1ccccc1NC(=O)/C(=N\NC(=O)c1ccncc1)C(c1cnc2ccc([N+](=O)[O-])cc2n1)[N+](=O)[O-] (configuration not stated)
TGI (786-0 renal): > 100 µM | TGI (NCI-H226 lung): > 100 µM | TGI (MDA-N): > 100 µM | TGI (PC-3 prostate): > 100 µM | TGI (T-47D breast): > 100 µM | TGI (CAKI-1 renal): > 100 µM | TGI (SF-295 CNS): > 100 µM | TGI (IGROV1 ovarian): > 100 µM | TGI (MCF7 breast): > 100 µM | TGI (SN12C renal): > 100 µM | TGI (NCI-H522 lung): > 100 µM | TGI (SK-OV-3 ovarian): > 100 µM | TGI (SK-MEL-2 melanoma): > 100 µM | TGI (M14 melanoma): > 100 µM | TGI (SNB-75 CNS): > 100 µM | TGI (RPMI-8226 leukemia): > 100 µM | TGI (MALME-3M melanoma): > 100 µM | TGI (SK-MEL-5 melanoma): > 100 µM | TGI (KM12 colon): > 100 µM | TGI (HL-60(TB) leukemia): > 100 µM | TGI (CCRF-CEM leukemia): > 100 µM | TGI (HOP-62 NSCLC): > 100 µM | TGI (SW-620 colon): > 100 µM | TGI (OVCAR-4 ovarian): > 100 µM | TGI (HCC-2998 colon): > 100 µM | TGI (OVCAR-3 ovarian): > 100 µM | TGI (OVCAR-8 ovarian): > 100 µM | TGI (RXF 393 renal): > 100 µM | TGI (U251 CNS): > 100 µM | TGI (HOP-92 NSCLC): > 100 µM | TGI (EKVX NSCLC): > 100 µM | TGI (NCI/ADR-RES ovarian): > 100 µM | TGI (UO-31 renal): > 100 µM | TGI (A498 renal): > 100 µM | TGI (SF-268 CNS): > 100 µM | TGI (MDA-MB-231 breast): > 100 µM | TGI (HCT-15 colon): > 100 µM | TGI (BT-549 breast): > 100 µM | TGI (TK-10 renal): > 100 µM | TGI (ACHN renal): > 100 µM | TGI (HT29 colon): > 100 µM | TGI (UACC-62 melanoma): > 100 µM | TGI (SF-539 CNS): > 100 µM | TGI (MOLT-4 leukemia): > 100 µM | TGI (OVCAR-5 ovarian): > 100 µM | TGI (SK-MEL-28 melanoma): > 100 µM | TGI (LOX IMVI melanoma): > 100 µM | TGI (NCI-H460 lung): > 100 µM | TGI (HS 578T breast): > 100 µM | TGI (MDA-MB-435): > 100 µM | TGI (NCI-H23 lung): > 100 µM | TGI (A549 NSCLC): > 100 µM | TGI (UACC-257 melanoma): > 100 µM | TGI (HCT-116 colon): > 100 µM
